According to US10519105B2, “KCNQ2-5 channel activator” (ONO PHARMACEUTICAL CO., LTD., priority 2016, dated 2019):
In brackets after ≈: the same amount, converted by molar mass.

Experiments:
hERG IKr current = biological target: T1, hERG IKr current (Homo sapiens, UniProt Q12809); assay: Action on hERG IKr current (patch-clamp, HEK293 cells overexpressing hERG); type: cell-based; conditions: maximum tail current, 10 minutes after application, read-out: 50% hERG channel inhibitory activity
T1 construct: expressed in transfected cells; host or cells: HEK293 cells
T1 sequence (Q12809 whole entry): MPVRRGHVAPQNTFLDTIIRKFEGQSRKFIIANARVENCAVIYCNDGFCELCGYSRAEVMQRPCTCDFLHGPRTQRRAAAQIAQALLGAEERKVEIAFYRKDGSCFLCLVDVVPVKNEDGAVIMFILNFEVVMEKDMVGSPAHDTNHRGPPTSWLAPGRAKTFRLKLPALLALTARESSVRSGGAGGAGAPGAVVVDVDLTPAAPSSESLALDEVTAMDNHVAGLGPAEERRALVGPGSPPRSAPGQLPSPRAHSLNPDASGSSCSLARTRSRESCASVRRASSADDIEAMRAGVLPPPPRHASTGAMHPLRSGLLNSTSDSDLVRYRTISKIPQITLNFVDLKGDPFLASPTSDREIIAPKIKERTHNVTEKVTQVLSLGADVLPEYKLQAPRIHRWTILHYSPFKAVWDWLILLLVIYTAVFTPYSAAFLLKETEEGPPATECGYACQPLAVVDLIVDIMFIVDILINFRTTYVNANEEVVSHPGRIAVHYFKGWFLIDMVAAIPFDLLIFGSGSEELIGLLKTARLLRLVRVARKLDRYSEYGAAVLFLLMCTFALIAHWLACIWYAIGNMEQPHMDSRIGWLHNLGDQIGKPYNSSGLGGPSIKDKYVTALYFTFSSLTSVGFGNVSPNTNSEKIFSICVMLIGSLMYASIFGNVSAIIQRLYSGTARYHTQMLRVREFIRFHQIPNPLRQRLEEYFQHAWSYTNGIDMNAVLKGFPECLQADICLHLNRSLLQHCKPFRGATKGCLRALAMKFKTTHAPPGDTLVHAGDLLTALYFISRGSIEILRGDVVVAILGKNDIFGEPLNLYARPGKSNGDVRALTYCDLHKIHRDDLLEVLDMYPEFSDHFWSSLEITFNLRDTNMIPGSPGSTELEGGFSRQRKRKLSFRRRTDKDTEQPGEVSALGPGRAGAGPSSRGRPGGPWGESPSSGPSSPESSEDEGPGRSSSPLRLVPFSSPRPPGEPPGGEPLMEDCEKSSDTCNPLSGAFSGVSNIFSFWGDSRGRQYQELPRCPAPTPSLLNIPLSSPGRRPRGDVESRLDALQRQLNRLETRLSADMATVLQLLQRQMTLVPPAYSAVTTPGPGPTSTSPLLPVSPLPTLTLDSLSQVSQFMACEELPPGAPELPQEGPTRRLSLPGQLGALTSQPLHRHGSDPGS
Method: By using HEK293 cells overexpressing a human ether-a-go-go-related gene (hERG), the maximum tail current of the hERG IKr current induced by redepolarization pulse subsequent to depolarization pulse was measured by a patch-clamp method, and the percent change (suppression ratio) after 10 minutes from application of a test substance with respect to the maximum tail current before the application of the test substance was calculated (see, Biophysical Journal, vol. 74, pp. 230-241 (1998)).

[1] = Stability in human liver microsomes; type: in vitro ADME; conditions: human liver microsomes 0.5 mg/mL, NADPH, 5 μM, 37° C., 15 minutes
Method: A test compound (a 10 mM DMSO solution, 5 μL) was diluted with a 50% aqueous acetonitrile solution (195 μL), whereby a 0.25 mM solution was prepared.
To a reaction vessel preheated to 37° C., 0.5 mg/mL of human liver microsomes (XenoTech, LLC) and 245 JLL of a 0.1 M phosphate buffer solution (pH 7.4) containing NADPH co-factor (BD Biosciences) were added, followed by preincubation for 5 minutes, and thereafter, the above-prepared test compound solution (5 μL) was added thereto to start a reaction (final concentration: 5 μM). Immediately after the start, a 20 μL portion was collected and added to 180 μL of acetonitrile containing an internal standard substance (warfarin) to stop the reaction. A 20 μL portion of this solution was stirred with 180 μL of a 50% aqueous acetonitrile solution on a plate equipped with a deproteinization filter, followed by suction filtration, and the filtrate was used as a standard sample.
After the above-prepared reaction solution was incubated at 37° C. for 15 minutes, a 20 μL portion of the solution was added to 180 μL of cooled acetonitrile (containing warfarin serving as an internal standard substance) to stop the reaction. A 20 μL portion of this solution was stirred with 180 μL of a 50% aqueous acetonitrile solution on a plate equipped with a deproteinization filter, followed by suction filtration, and the filtrate was used as a reaction sample.
A residual ratio (%) was calculated as follows. 1 μL of the sample solution was injected into LC-MS/MS (Discovery Max, manufactured by Thermo Scientific, Inc.), and a value obtained by dividing the peak area ratio of the reaction sample (peak area of test compound/peak area of internal standard substance) by the peak area ratio of the standard sample was multiplied by 100.

Human KCNQ2/3 channel = biological target: T2, Human KCNQ2/3 channel (Homo sapiens, UniProt O43525+O43526); assay: Opening action with respect to KCNQ2/3 channel by depolarization stimulation (thallium influx, FLIPR); type: cell-based; conditions: concentration giving 50% of the maximum reaction of retigabine (10 μM); human KCNQ2/3 expressing CHO-DHFR- cells; read-out: KCNQ2/3 ECrtg50
T2 construct: expressed in transfected cells; host or cells: CHO-DHFR- cells
Method: Human KCNQ2/3 expression cells (CHO-DHFR− cells) were seeded in each well of a 384-well plate (collagen-coated, black, clear bottom) at 0.5×10^4 cells/50 μL per well and cultured using a MEM ALPHA medium (containing 10 vol % inactivated (56° C., 30 min) fetal bovine serum, 100 IU/mL penicillin, 100 μg/mL streptomycin, and 2 mM L-glutamine) at 37° C. in 5% CO2 for 18 to 24 hours. After the medium in the plate was removed, incubation (room temperature, 60 minutes, shading) was performed in a loading buffer (prepared by the method described in the manual of FluxOR Thallium Detection Kit (Invitrogen, F10016, F10017)). A KCNQ2/3 channel opening action (thallium influx into cells) by depolarization stimulation (5 mM potassium and 0.5 mM thallium) was measured by FLIPR TETRA (Molecular Devices). The compound of the present invention was treated 5 minutes before the depolarization stimulation, and the reaction induced by the depolarization stimulation was measured over time for 180 seconds. The channel opening action of the compound of the present invention was evaluated based on the change amount of the fluorescence intensity from the time before the depolarization stimulation to the time after the elapse of 180 seconds, and the concentration (ECrtg50) satisfying 50% of the fluorescence intensity change of a maximum reaction (in the treatment at 10 μM) of retigabine under the conditions of this experiment was calculated.

[2] = Solubility test (DMSO precipitation method, Japanese Pharmacopoeia dissolution test second solution); type: physicochemical; conditions: aqueous buffer, kinetic from dmso stock, JP dissolution test second solution pH 6.8, room temperature, quantification range 5 to 100 μM
Method: A calibration curve solution was prepared at 0.1, 0.4, and 2 μM by diluting a test substance (a 10 mM DMSO solution) with acetonitrile and adding acetonitrile containing an internal standard substance (candesartan).
A sample solution was prepared as follows. 5 μL of the compound of the present invention (a 10 mM DMSO solution) was added to 495 μL of the Japanese Pharmacopoeia dissolution test second solution (pH: 6.8), followed by stirring at room temperature for 5 hours. Then, the solution was transferred to a solubility filter plate and subjected to suction filtration. The filtrate (20 μL) was diluted with acetonitrile, followed by adding acetonitrile containing an internal standard substance (candesartan).
Each of the calibration curve and sample solutions (5 μL) was injected into LC-MS/MS (Discovery Max, manufactured by Thermo Scientific, Inc.) and subjected to quantification (quantification range: 5 to 100 μM). The solubility in the case where the value equal to or less than the quantification range was obtained was defined as <5 μM, and the solubility in the case where the value equal to or more than the quantification range was obtained was defined as […].

[3] = test system: bladder extracted from rat; assay: Relaxing action on bladder extracted from rat (carbachol-induced contraction, Magnus tube); conditions: rat bladder strip, carbachol 1 μM contraction; read-out: IC20 (percent change in tension -20%)
Method: Female Jcl:Wistar rats (CLEA Japan, Inc., body weight at use: 170 to 200 g) were anesthetized by intraperitoneal administration of about 40 mg/kg of pentobarbital (Somnopentyl, Schering Plough Animal Health Corporation), and killed by bloodletting. The bladder was extracted by abdominal incision and immediately thereafter immersed in ice-cooled Krebs buffer (Krebs Ringer bicarbonate buffer (Sigma-Aldrich Co. LLC) supplemented with sodium hydrogen carbonate (final concentration: 15 mM) and calcium chloride (final concentration: 2.5 mM)) saturated with a mixed gas (95% O2, 5% CO2).
The bladder body extracted from each rat was cut into an oblong strip shape (about 10×3 mm), whereby a specimen was prepared on ice. Immediately thereafter, the specimen was suspended in a Magnus tube filled with Krebs buffer (37° C.) bubbled with the mixed gas while applying a tension load of 500 mg thereto. Incidentally, the specimen was prepared within 24 hours after extracting the tissue.
After the elapse of one hour or more from the suspension of the specimen, 2.5 M KCl was added thereto to a final concentration of 100 mM, and the specimen in which a contraction reaction could be confirmed was used.
Carbachol (a contraction inducer) contraction was induced at a concentration of 1 μM. […] After the contraction reaction was stabilized, physiological saline or the compound of the present invention was added thereto to a final concentration of 1 nM, 10 nM, 100 nM, 1 μM, and […] in a cumulative manner from a low concentration.
The tension (mg) in the extracted bladder was used as an evaluation item. The tension was read using analysis software WAVE THERMO 1000. A percent change in tension after adding the compound of the present invention when the tension after adding the contraction inducer was taken as 0% was defined as a percent change in tension (%) and used as an evaluation index. The percent change in tension (%) is calculated according to the following formula. percent change in tension (%)={tension (mg) after adding compound of the present invention and the like−tension (mg) before adding contraction inducer}/{tension (mg) after adding contraction inducer−tension (mg) before adding contraction inducer}×100−100
The value at which the percent change in tension (%) was −20% was calculated as IC20 and used as an index of the relaxing action on the extracted bladder.

Row | Residual ratio [1] [%] | EC50 (Human KCNQ2/3 channel) [nM] | solubility at 5 h [2] [µM] | SMILES | IC50 (hERG IKr current) [nM] | IC20 [3] [nM]
1 | 98 | 300 |  | CC1(O)CCc2c1cc(Cl)c(NC(=O)NCc1ccc(C(F)(F)F)cn1)c2Cl (single isomer, unassigned) [Example 4(4), 1-(4,6-dichloro-1-hydroxy-1-methyl-2,3-dihydro-1H-inden-5-yl)-3-{[5-(trifluoromethyl)-2-pyridinyl]methyl}urea] | > 10000 | 
2 | 77 | 2 | 87 (≈ 42.5 µg/mL) | O=C(NCc1ccc(C(F)(F)F)cn1)Nc1c(Cl)cc2c(c1Cl)CCC2(O)C(F)(F)F (stereo not shown) [Example 12(4), 1-[4,6-dichloro-1-hydroxy-1-(trifluoromethyl)-2,3-dihydro-1H-inden-5-yl]-3-{[5-(trifluoromethyl)-2 pyridinyl]methyl}urea] |  | 10
3 |  |  |  | C[C@@H](NC(=O)Nc1c(Cl)cc2c(c1Cl)CCC2(O)C(F)(F)F)c1ccc(F)cc1 (stereo partly drawn) [Example 12(5), 1-[4,6-dichloro-1-hydroxy-1-(trifluoromethyl)-2,3-dihydro-H-inden-5-yl]-3-[(1R)-1-(4-fluorophenyl)ethyl]urea] | > 10000 | 30
4 | 94 | 5 | 82 (≈ 35.9 µg/mL) | O=C(NCc1ccc(F)cc1)Nc1c(Cl)cc2c(c1Cl)CCC2(O)C(F)(F)F (stereo not shown) [Example 12, 1-[4,6-dichloro-1-hydroxy-1-(trifluoromethyl)-2,3-dihydro-1H-inden-5-yl]-3-(4-fluorobenzyl)urea] | > 10000 | 10
5 | 90 | 200 | 87 (≈ 36.5 µg/mL) | CC1(O)c2cc(Cl)c(NC(=O)NCc3ccc(F)cc3)c(Cl)c2CC1(F)F (stereo not shown) [Example 42, 1-(4,6-dichloro-2,2-difluoro-1-hydroxy-1-methyl-2,3-dihydro-1H-inden-5-yl)-3-(4-fluorobenzyl)urea] | > 10000 | 100
